Data as given in patent US20250154144A1 (CHILDREN'S HOSPITAL MEDICAL CENTER, priority 2021, published 2025).
Read-outs that look alike come from different tables or passages of the source.

Key:
[1] = system: MOLM14 D835Y cells; assay: cells; format: cell-based; settings: Homo sapiens, MOLM-14, 48 h, 48 hours, Cell Titer Glo; read-out: MOLM14 D835Y IC50
[2] = system: THP1 cells; assay: Combination drug screening, Cell Titer Glo, 10 × 10 matrix, THP1 cells; format: cell-based
[3] = system: MOLM14(D835Y) cells; format: cell-based
[4] = target: T1, FLT3 K663Q (Homo sapiens, UniProt P36888, K663Q); assay: DiscoverX KINOMEscan competition binding, FLT3 K663Q
T1 construct: purchased DiscoverX (KINOMEscan)
T1 sequence (P36888 27-993 K663Q): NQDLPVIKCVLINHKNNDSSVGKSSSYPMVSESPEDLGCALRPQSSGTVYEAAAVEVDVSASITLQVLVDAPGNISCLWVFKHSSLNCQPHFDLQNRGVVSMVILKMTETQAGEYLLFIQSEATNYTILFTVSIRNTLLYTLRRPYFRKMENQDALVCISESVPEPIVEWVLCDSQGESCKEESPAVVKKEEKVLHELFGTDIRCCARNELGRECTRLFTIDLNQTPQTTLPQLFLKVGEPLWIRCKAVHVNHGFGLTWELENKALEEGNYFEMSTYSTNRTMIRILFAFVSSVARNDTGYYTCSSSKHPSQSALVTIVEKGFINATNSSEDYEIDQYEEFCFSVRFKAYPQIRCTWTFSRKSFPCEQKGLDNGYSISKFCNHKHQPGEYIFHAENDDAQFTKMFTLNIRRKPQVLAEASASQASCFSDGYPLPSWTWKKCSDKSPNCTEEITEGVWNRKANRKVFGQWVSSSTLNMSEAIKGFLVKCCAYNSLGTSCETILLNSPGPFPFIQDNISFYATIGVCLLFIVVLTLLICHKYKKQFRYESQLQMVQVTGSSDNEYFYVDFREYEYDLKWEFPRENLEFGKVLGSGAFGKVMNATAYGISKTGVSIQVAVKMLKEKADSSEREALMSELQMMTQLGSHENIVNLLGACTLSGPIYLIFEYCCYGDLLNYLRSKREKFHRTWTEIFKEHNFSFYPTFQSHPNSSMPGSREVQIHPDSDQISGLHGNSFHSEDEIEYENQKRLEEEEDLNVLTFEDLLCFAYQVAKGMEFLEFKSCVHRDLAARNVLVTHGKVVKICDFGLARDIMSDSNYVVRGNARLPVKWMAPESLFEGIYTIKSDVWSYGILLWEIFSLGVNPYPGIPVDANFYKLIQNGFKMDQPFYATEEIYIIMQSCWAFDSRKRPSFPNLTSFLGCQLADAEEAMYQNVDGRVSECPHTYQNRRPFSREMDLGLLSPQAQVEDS

[5] = target: T2, IRAK4 (Homo sapiens, UniProt Q9NWZ3); assay: Reaction Biology NanoBRET target engagement assay in HEK-293 cells, IRAK4; settings: NanoBRET IRAK4 IC50, HEK-293 cells
T2 sequence (Q9NWZ3 1-460): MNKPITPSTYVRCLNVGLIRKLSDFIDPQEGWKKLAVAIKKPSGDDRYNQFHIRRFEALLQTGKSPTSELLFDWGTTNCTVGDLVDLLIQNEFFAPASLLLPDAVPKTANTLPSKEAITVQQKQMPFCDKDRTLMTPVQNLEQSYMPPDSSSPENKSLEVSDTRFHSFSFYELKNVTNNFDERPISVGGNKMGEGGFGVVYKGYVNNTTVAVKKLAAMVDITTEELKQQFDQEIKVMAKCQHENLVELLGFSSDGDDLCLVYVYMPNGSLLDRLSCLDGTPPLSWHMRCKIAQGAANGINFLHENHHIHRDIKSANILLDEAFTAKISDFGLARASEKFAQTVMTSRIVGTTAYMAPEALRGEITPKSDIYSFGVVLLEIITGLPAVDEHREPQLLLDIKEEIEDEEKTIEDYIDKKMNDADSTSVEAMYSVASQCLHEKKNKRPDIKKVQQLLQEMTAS

[6] = starting conc. 100 nM, with (+)-BAY-1251152 starting conc. 1000 nM
[7] = starting conc. 100 nM, with Azacitidine (5-Azacytidine) starting conc. 20000 nM
[8] = starting conc. 100 nM, with Palbociclib starting conc. 10000 nM
[9] = starting conc. 100 nM, with Prednisolone starting conc. 10000 nM
[10] = starting conc. 100 nM, with TNO-155 starting conc. 10000 nM
[11] = starting conc. 100 nM, with Venetoclax (ABT-199) starting conc. 2000 nM
[12] = starting conc. 100 nM, with Venetoclax (ABT-199) starting conc. 20000 nM
[13] = starting conc. 20000 nM, with (+)-BAY-1251152 starting conc. 1000 nM
[14] = starting conc. 20000 nM, with Azacitidine (5-Azacytidine) starting conc. 20000 nM
[15] = starting conc. 20000 nM, with Palbociclib starting conc. 10000 nM
[16] = starting conc. 20000 nM, with Prednisolone starting conc. 10000 nM
[17] = starting conc. 20000 nM, with TNO-155 starting conc. 10000 nM
[18] = starting conc. 20000 nM, with Venetoclax (ABT-199) starting conc. 2000 nM
[19] = starting conc. 20000 nM, with Venetoclax (ABT-199) starting conc. 20000 nM

## COc1cc2ncc(-c3ccnc(N[C@@H]4CCCNC4)n3)n2nc1C1CC1 [Compound 50, (R)-4-(6-cyclopropyl-7-methoxyimidazo[1,2-b]pyridazin-3-yl)-N-(piperidin-3-yl)pyrimidin-2-amine]
[1]
  IC50: 17 nM
[2]; THP1 cells, 10 × 10, combination with (+)-BAY-1251152
  Excess HSA Score: −396.5
[2]; THP1 cells, 10 × 10, combination with AMG-232
  Excess HSA Score: 252
[2]; THP1 cells, 10 × 10, combination with AZD-5363
  Excess HSA Score: −475
[2]; THP1 cells, 10 × 10, combination with Eprenetapopt/APR-246
  Excess HSA Score: −218.2
[2]; THP1 cells, 10 × 10, combination with Ivosidenib
  Excess HSA Score: −149.8
[2]; THP1 cells, 10 × 10, combination with Lenalidomide
  Excess HSA Score: 333.7
[2]; THP1 cells, 10 × 10, combination with Palbociclib
  Excess HSA Score: −273.2
[2]; THP1 cells, 10 × 10, combination with Prednisolone
  Excess HSA Score: −429.3
[2]; THP1 cells, 10 × 10, combination with SNDX-5613
  Excess HSA Score: −9.013
[2]; THP1 cells, 10 × 10, combination with TNO-155
  Excess HSA Score: 306.2
[2]; THP1 cells, 10 × 10, combination with Trametinib
  Excess HSA Score: −475.4
[2]; THP1 cells, 10 × 10, combination with Ulixertinib
  Excess HSA Score: −358.5769
[2]; THP1 cells, 10 × 10, combination with Venetoclax (ABT-199)
  Excess HSA Score: −2869
[2]; THP1 cells, combination with AMG-232
  Comments: Antagonistic
[2]; THP1 cells, combination with Venetoclax (ABT-199)
  Comments: Synergistic
[2]; [6]
  Comments: Synergistic at both
  Excess HSA Score: −408.4
[2]; [7]
  Comments: Synergistic at both
  Excess HSA Score: −164.8
[2]; [8]
  Comments: Antagonistic over
  Excess HSA Score: 19.42
[2]; [9]
  Comments: Antagonistic at both
  Excess HSA Score: 76.0598
[2]; [10]
  Excess HSA Score: 0.06789
[2]; [11]
  Comments: Synergistic; Optimal
  Excess HSA Score: −911.4
[2]; [12]
  Comments: Synergistic; Optimal
  Excess HSA Score: −1400
[2]; [13]
  Comments: Synergistic at both
  Excess HSA Score: −293.4
[2]; [14]
  Comments: Synergistic at both
  Excess HSA Score: −347.5
[2]; [15]
  Excess HSA Score: −482.7
[2]; [16]
  Comments: Antagonistic at both
  Excess HSA Score: 541.6925
[2]; [17]
  Comments: Antagonistic
  Excess HSA Score: 230.5
[2]; [18]
  Comments: Synergistic; Optimal
  Excess HSA Score: −27.96
[2]; [19]
  Comments: Synergistic; Optimal
  Excess HSA Score: −1808
[3]; MOLM14(D835Y) cells, 10 × 10, combination with (+)-BAY-1251152
  Excess HSA Score: −552.5
[3]; MOLM14(D835Y) cells, 10 × 10, combination with AMG-232
  Excess HSA Score: −129.9
[3]; MOLM14(D835Y) cells, 10 × 10, combination with AZD-5363
  Excess HSA Score: 12.5
[3]; MOLM14(D835Y) cells, 10 × 10, combination with Eprenetapopt/APR-246
  Excess HSA Score: −99.03
[3]; MOLM14(D835Y) cells, 10 × 10, combination with Ivosidenib
  Excess HSA Score: 219
[3]; MOLM14(D835Y) cells, 10 × 10, combination with Lenalidomide
  Excess HSA Score: 555
[3]; MOLM14(D835Y) cells, 10 × 10, combination with Palbociclib
  Excess HSA Score: −528.5
[3]; MOLM14(D835Y) cells, 10 × 10, combination with Prednisolone
  Excess HSA Score: 196.6
[3]; MOLM14(D835Y) cells, 10 × 10, combination with SNDX-5613
  Excess HSA Score: −229.3
[3]; MOLM14(D835Y) cells, 10 × 10, combination with TNO-155
  Excess HSA Score: −1021
[3]; MOLM14(D835Y) cells, 10 × 10, combination with Trametinib
  Excess HSA Score: −342.3
[3]; MOLM14(D835Y) cells, 10 × 10, combination with Ulixertinib
  Excess HSA Score: 149.4
[3]; MOLM14(D835Y) cells, 10 × 10, combination with Venetoclax (ABT-199)
  Excess HSA Score: −1391
[3]; MOLM14(D835Y) cells, combination with AZD-5363
  Comments: Antagonistic
[3]; MOLM14(D835Y) cells, combination with Venetoclax (ABT-199)
  Comments: Synergistic
[3]; [6]
  Comments: Synergistic
  Excess HSA Score: −317.9
[3]; [7]
  Excess HSA Score: −579.8
[3]; [8]
  Excess HSA Score: −1019
[3]; [9]
  Excess HSA Score: 9.258
[3]; [10]
  Comments: Synergistic
  Excess HSA Score: −1043.6684
[3]; [11]
  Comments: Synergistic;
  Excess HSA Score: −1372
[3]; [12]
  Comments: Synergistic;
  Excess HSA Score: −83.83
[3]; [13]
  Comments: Antagonistic
  Excess HSA Score: 67.99
[3]; [14]
  Excess HSA Score: −56.9
[3]; [15]
  Excess HSA Score: −31.37
[3]; [16]
  Excess HSA Score: 121.2
[3]; [17]
  Comments: Additive
  Excess HSA Score: −2.487
[3]; [18]
  Comments: Synergistic;
  Excess HSA Score: −1026
[3]; [19]
  Comments: Synergistic;
  Excess HSA Score: −74.01

## COc1cc2ncc(-c3cncc(N[C@H]4CNC[C@@H]4F)n3)n2nc1C1CC1 [Compound 22, 6-(6-cyclopropyl-7-methoxyimidazo[1,2-b]pyridazin-3-yl)-N-((3S,4S)-4-fluoropyrrolidin-3-yl)pyrazin-2-amine]
[4]
  Kd: 18 nM
[5]
  IC50: 9 nM

## COc1cc2ncc(-c3ccnc(N[C@H]4CNC[C@@H]4F)n3)n2nc1C1CC1 [Compound 49, 4-(6-cyclopropyl-7-methoxyimidazo[1,2-b]pyridazin-3-yl)-N-((3S,4S)-4-fluoropyrrolidin-3-yl)pyrimidin-2-amine]
[4]
  Kd: 2.2 nM
[1]
  IC50: 24 nM
